Measurements reported in ChEMBL document CHEMBL1127947, “Synthesis and evaluation of n-substituted 1-(5-fluoro-2-pyrimidinyl)piperazine derivatives as potential anti-ischemic agents” (Bioorg Med Chem Lett, 1994).

Tests used:
[1] = biological target: T1, 5-hydroxytryptamine receptor 1A (Rattus norvegicus, UniProt P19327); assay: In vitro binding affinity towards serotonin 5-HT1A receptor by the displacement of [3H]8-OH-DPAT from rat hippocampus; format: tissue-based
T1 sequence (P19327 whole entry): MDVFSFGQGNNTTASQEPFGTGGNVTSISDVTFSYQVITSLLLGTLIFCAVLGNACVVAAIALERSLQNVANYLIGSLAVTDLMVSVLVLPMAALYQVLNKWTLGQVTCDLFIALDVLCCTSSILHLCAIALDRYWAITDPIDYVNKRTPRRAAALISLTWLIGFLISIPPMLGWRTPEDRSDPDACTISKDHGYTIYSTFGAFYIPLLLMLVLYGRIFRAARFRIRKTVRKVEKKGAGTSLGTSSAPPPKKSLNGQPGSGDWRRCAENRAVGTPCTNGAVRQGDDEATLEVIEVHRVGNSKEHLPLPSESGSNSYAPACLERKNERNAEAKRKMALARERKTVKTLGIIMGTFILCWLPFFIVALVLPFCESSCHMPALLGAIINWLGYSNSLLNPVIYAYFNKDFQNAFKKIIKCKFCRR

[2] = biological target: 5-hydroxytryptamine receptor 2A (Rattus norvegicus, UniProt P14842); assay: In vitro binding affinity towards serotonin 5-HT2A receptor by the displacement of [3H]spiperone from rat cortical membranes; format: cell membranes, Membrane
Sequence of 5-hydroxytryptamine receptor 2A (P14842 whole entry): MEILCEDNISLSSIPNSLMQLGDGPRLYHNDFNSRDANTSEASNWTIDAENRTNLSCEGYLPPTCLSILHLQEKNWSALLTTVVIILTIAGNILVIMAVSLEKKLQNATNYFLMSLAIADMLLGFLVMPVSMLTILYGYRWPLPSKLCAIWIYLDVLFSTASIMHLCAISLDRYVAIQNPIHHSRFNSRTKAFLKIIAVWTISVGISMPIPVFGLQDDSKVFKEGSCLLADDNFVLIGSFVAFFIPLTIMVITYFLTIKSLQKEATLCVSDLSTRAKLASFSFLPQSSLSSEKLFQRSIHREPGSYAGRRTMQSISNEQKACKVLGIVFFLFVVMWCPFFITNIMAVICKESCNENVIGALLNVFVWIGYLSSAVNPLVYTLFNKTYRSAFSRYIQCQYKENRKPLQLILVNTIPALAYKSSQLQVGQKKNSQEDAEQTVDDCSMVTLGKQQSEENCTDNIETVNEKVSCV

Rattus norvegicus [3] = assay: In vivo neuroprotective activity to block nitrogen (N2) lethality in male Dawley rats by ip administration at a dose of 40 mg/kg; format: functional; details: route intraperitoneal
Rattus norvegicus [4] = assay: In vivo neuroprotective activity to block nitrogen (N2) lethality in male Dawley rats by ip administration at a dose of 80 mg/kg; format: functional; details: route intraperitoneal
Rattus norvegicus [5] = assay: In vivo neuroprotective activity to block nitrogen (N2) lethality in male Dawley rats by ip administration at a dose of 20 mg/kg; format: functional; details: route intraperitoneal
Rattus norvegicus [6] = assay: In vivo neuroprotective activity to block nitrogen (N2) lethality in male Dawley rats by ip administration at a dose of 100 mg/kg; format: functional; details: route intraperitoneal
Rattus norvegicus [7] = assay: In vivo neuroprotective activity to block nitrogen (N2) lethality in male Dawley rats by ip administration at a dose of 50/100 mg/kg; format: functional

SMILES | IC50 [1] | IC50 [2] | Protection (Rattus norvegicus [3]) | further results
OC(CCCN1CCN(c2ncc(F)cn2)CC1)(c1ccc(F)cc1)C1CCCCC1 (configuration not stated) | 50 nM | 336 nM | 75% | –
O=C(NC(CCCN1CCN(c2ncc(F)cn2)CC1)c1ccc(F)cc1)c1ccc(F)cc1 (configuration not stated) | 106 nM | 468 nM | 88% | –
Fc1cnc(N2CCN(CCCCC3CCCCC3)CC2)nc1 | 315 nM | – | – | Protection (Rattus norvegicus [4]): 75%
Fc1ccc(OCCCN2CCN(c3ncc(F)cn3)CC2)cc1 | 145 nM | 141 nM | 25% | –
O=S(=O)(NC(CCCN1CCN(c2ncc(F)cn2)CC1)c1ccc(F)cc1)c1ccc(F)cc1 (configuration not stated) | 1810 nM | 3400 nM | – | Protection (Rattus norvegicus [4]): 100%
CC(=O)NC(CCCN1CCN(c2ncc(F)cn2)CC1)c1ccc(F)cc1 (configuration not stated) | 289 nM | – | 13% | –
CC(=O)OC(CCCN1CCN(c2ncc(F)cn2)CC1)c1ccc(F)cc1 (configuration not stated) | 46 nM | 504 nM | – | Protection (Rattus norvegicus [4]): 100%
O=C(OC(CCCN1CCN(c2ncc(F)cn2)CC1)c1ccc(F)cc1)c1ccccc1 (configuration not stated) | 581 nM | – | – | Protection (Rattus norvegicus [4]): 63%
OC(CCCN1CCN(c2ncc(F)cn2)CC1)C1CCCCC1 (configuration not stated) | 30 nM | – | 100% | –
O=S(=O)(NC(CCCN1CCN(c2ncc(F)cn2)CC1)C1CCCCC1)c1ccc(F)cc1 (configuration not stated) | – | 760 nM | – | Protection (Rattus norvegicus [5]): 50%
O=C(NC(CCCN1CCN(c2ncc(F)cn2)CC1)C1CCCCC1)c1ccc(F)cc1 (configuration not stated) | – | 760 nM | – | Protection (Rattus norvegicus [5]): 50%
O=S(=O)(NC(CCCN1CCN(c2ncc(F)cn2)CC1)c1ccc(F)c2ccccc12)c1ccc(F)cc1 (configuration not stated) | – | – | 38% | –
Fc1ccc(SCCCN2CCN(c3ncc(F)cn3)CC2)cc1 | 129 nM | – | 13% | –
NC(CCCN1CCN(c2ncc(F)cn2)CC1)C1CCCCC1 (configuration not stated) | 257 nM | – | – | Protection (Rattus norvegicus [5]): 50%
Fc1ccc(CCCCN2CCN(c3ncc(F)cn3)CC2)cc1 | 71 nM | 212 nM | 75% | –
NC(CCCN1CCN(c2ncc(F)cn2)CC1)c1ccc(F)c2ccccc12 (configuration not stated) | 345 nM | – | 38% | –
OC(CCCN1CCN(c2ncc(F)cn2)CC1)c1ccc(F)c2ccccc12 (configuration not stated) | 562 nM | 1010 nM | – | Protection (Rattus norvegicus [6]): 100%
O=S(=O)(CCCN1CCN(c2ncc(F)cn2)CC1)c1ccc(F)cc1 | 461 nM | – | 25% | –
Fc1cnc(N2CCN(CCCCc3ccc(F)c4ccccc34)CC2)nc1 | 414 nM | 590 nM | – | Protection (Rattus norvegicus [5]): 100%
OC(CCCN1CCN(c2ncc(F)cn2)CC1)c1ccc(F)cc1 (configuration not stated) [BMY-14802] | – | 1700 nM | – | Protection (Rattus norvegicus [7]): 63%
